Experimental data: ChEMBL document CHEMBL5050833, “Novel cyclic trex1 inhibitors” (2020)

Columns and labels:
[1] = Inhibition of mouse TREX1 exonuclease activity using labeled DNA oligonucleotide as substrate incubated for 30 mins and measured after 45 mins by fluorescence assay
[2] = Inhibition of human TREX1 exonuclease activity using labeled DNA oligonucleotide as substrate incubated for 30 mins and measured after 45 mins by fluorescence assay

Compound	IC50 [1]	IC50 [2]
CC(C)C[C@H](C(=O)NCc1ccc(Cl)cc1)N1CCC(CS(=O)(=O)c2ccccc2)N2C[C@H](N)C[C@H]2C1=O (stereo not given in full)	in the range around 10 µM	in the range around 1 µM
N[C@@H]1C[C@H]2C(=O)N([C@H](CCC(=O)O)C(=O)NCc3ccc(C(F)(F)F)cc3)CCC(CCc3ccccc3)N2C1 (stereo in doubt; form 1)	in the range around 10 µM	in the range around 10 µM
CC(C)C[C@H](C(=O)N[C@H](C)c1ccccc1)N1CCC(CCc2ccccc2)N2C[C@H](N)C[C@H]2C1=O (stereo not given in full)	in the range around 10 µM	in the range around 10 µM
CC(C)C[C@H](C(=O)N[C@@H](C)c1ccccc1)N1CCC(CCc2ccccc2)N2C[C@H](N)C[C@H]2C1=O (stereo not given in full)	in the range around 10 µM	in the range around 10 µM
CC(C)C[C@H](C(=O)N(C)Cc1ccc(C(F)(F)F)cc1)N1CCC(CCc2ccccc2)N2C[C@H](N)C[C@H]2C1=O (stereo not given in full)	in the range around 1 µM	in the range around 1 µM
CC(C)C[C@H](C(=O)NCC1CCCCC1)N1CCC(CCc2ccccc2)N2C[C@H](N)C[C@H]2C1=O (stereo not given in full)	in the range around 10 µM	in the range around 10 µM
CC(C)C[C@H](C(=O)NCc1ccc(C(F)(F)F)cc1)N1CCC(CCc2ccccc2)N2C[C@H](N)C[C@H]2C1=O (stereo not given in full)	< 1 µM	< 1 µM
Cc1ccc(CNC(=O)[C@@H](CC(C)C)N2CCC(CCc3ccccc3)N3C[C@H](N)C[C@H]3C2=O)cc1 (stereo not given in full)	in the range around 1 µM	in the range around 1 µM
CC(C)C[C@H](C(=O)NCc1ccc(Cl)c(Cl)c1)N1CCC(C)N2C[C@H](N)C[C@H]2C1=O (stereo not given in full)	in the range around 10 µM	in the range around 10 µM
CC(C)C[C@H](C(=O)NCc1ccccc1)N1CCC(CCc2ccccc2)N2C[C@H](N)C[C@H]2C1=O (stereo not given in full)	in the range around 10 µM	in the range around 1 µM
CC(C)C[C@H](C(=O)NCc1cscn1)N1CCC(CCc2ccccc2)N2C[C@H](N)C[C@H]2C1=O (stereo not given in full)	in the range around 10 µM	in the range around 1 µM
CC(C)C[C@H](C(=O)NCc1ccc(F)cc1)N1CCC(CCc2ccccc2)N2C[C@H](N)C[C@H]2C1=O (stereo not given in full)	in the range around 1 µM	< 1 µM
Cc1nnc(CC[C@H](C(=O)NCc2ccc(Cl)c(Cl)c2)N2CCC(CCc3ccccc3)N3C[C@H](N)C[C@H]3C2=O)[nH]1 (stereo not given in full)	< 1 µM	< 1 µM
N[C@@H]1C[C@H]2C(=O)N([C@H](CCC(=O)O)C(=O)NCc3ccc(C(F)(F)F)cc3)CCC(CCc3ccccc3)N2C1 (stereo in doubt; form 2)	< 1 µM	< 1 µM

Second part, the compound after the results:

IC50 [1]	IC50 [2]	Compound
in the range around 1 µM	in the range around 1 µM	CC(C)C[C@H](C(=O)NS(=O)(=O)c1ccccc1)N1CCC(CCc2ccccc2)N2C[C@H](N)C[C@H]2C1=O (stereo not given in full)
in the range around 1 µM	< 1 µM	CCC[C@H](C(=O)NS(=O)(=O)c1ccc(Cl)c(Cl)c1)N1CCC(CCc2ccccc2)N2C[C@H](N)C[C@H]2C1=O (stereo not given in full)
in the range around 10 µM	in the range around 1 µM	CC(=O)N[C@@H]1C[C@H]2C(=O)N([C@H](CC(C)C)C(=O)NCc3ccc(Cl)c(Cl)c3)CCC(CCc3ccccc3)N2C1 (stereo not given in full)
< 1 µM	< 1 µM	CC(C)C[C@H](C(=O)NS(=O)(=O)c1ccc(Cl)c(Cl)c1)N1CCC(CCc2ccccc2)N2C[C@H](N)C[C@H]2C1=O (stereo not given in full)
in the range around 1 µM	< 1 µM	CC(C)C[C@H](C(=O)NCc1ccc(Cl)c(Cl)c1)N1CCC(COc2ccccc2)N2C[C@H](N)C[C@H]2C1=O (stereo not given in full)
in the range around 1 µM	< 1 µM	CC(C)C[C@H](C(=O)NCc1ccc(Cl)cc1Cl)N1CCC(CCc2ccccc2)N2C[C@H](N)C[C@H]2C1=O (stereo not given in full)
